{"source": "patent US20250319046A1", "about": "“PHENYLALANINE-BASED LAT1 INHIBITORS AND USES THEREOF” (MAXYMUNE THERAPEUTICS, INC., priority 2024, published 2025)", "data": [{"target": "LAT1 (Homo sapiens (Human), UniProt Q01650)", "sequence (Q01650 whole entry)": "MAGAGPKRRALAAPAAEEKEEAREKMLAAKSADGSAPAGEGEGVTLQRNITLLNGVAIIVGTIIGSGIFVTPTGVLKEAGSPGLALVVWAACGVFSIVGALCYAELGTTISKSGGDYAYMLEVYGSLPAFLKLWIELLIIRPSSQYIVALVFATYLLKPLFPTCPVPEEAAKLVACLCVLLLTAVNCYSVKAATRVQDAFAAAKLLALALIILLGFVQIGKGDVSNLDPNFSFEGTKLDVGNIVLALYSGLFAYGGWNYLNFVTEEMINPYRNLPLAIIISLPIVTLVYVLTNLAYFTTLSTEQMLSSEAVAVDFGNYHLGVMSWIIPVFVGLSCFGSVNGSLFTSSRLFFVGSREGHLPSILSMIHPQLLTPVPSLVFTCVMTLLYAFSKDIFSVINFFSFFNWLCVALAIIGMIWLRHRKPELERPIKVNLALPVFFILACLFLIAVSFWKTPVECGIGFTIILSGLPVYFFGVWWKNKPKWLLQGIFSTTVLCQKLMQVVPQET", "sequence (P08195 whole entry partner)": "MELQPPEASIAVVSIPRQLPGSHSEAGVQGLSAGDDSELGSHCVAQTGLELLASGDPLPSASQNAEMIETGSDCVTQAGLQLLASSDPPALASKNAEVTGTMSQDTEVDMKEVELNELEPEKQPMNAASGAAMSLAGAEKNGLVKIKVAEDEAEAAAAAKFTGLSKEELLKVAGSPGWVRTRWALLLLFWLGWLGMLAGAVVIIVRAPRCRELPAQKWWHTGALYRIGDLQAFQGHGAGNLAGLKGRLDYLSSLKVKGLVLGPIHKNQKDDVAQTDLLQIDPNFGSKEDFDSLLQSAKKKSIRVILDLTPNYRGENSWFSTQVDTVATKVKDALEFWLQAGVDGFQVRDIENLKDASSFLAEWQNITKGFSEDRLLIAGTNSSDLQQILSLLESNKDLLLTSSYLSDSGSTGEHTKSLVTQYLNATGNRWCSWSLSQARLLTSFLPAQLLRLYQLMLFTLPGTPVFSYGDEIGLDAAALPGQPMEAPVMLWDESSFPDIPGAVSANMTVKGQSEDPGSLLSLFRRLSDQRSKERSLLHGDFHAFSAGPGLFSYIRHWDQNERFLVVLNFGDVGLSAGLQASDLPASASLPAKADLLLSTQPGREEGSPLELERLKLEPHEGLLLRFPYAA", "experiment": "LAT1 uptake inhibition assay: [3H]-gabapentin competition uptake in LN229 cells", "type": "cell-based", "conditions": "[3H]-gabapentin uptake, 15 min incubation in PBS, read-out: IC50, the concentration of test compound at which the [3H]-GP uptake was inhibited by 50%", "experimental": "LAT1 Uptake Inhibition Assay\nThe ability of compounds to interact with LAT1 was measured using a radiolabeled competition uptake assay with [^3H]-Gabapentin ([^3H]-GP) (Perkin Elmer) in 96-well plates with LN229 cells (ATCC®). Ten (10)×10^3 (10,000) cells/well were plated in white, clear bottom plates and were allowed to grow for three (3) days. On the fourth day, the cells were washed and then incubated with 50,000 counts per minute (cpm) of [^3H]-GP in phosphate buffered saline (PBS) (VWR International) with increasing concentrations of test compounds in at least triplicate for 15 min. At end of the assay time, the incubation solution was removed, and plates were washed three times (3×) with 100 μL of ice-cold PBS buffer. One-hundred fifty (150) […] of scintillation fluid (VWR International) was added to each well, and the radioactivity retained within the cells was measured on a 96-well scintillation counter. Background uptake ([^3H]-GP uptake in the presence of 10 mM non-radiolabeled gabapentin (GP)) (MedKoo) was subtracted and data were normalized to the DMSO control ([^3H]-GP uptake in the absence of any competitor). Data were fitted to the Michaelis-Menten equation using GraphPad Prism (Version 8.2.0).", "units": {"IC50": "nM"}, "values": [{"smiles": "Cc1ccc(NS(=O)(=O)c2c[nH]cn2)cc1C[C@H](N)C(=O)O", "note": "[Compound 31, (S)-3-(5-(1H-imidazole-4-sulfonamido)-2-methylphenyl)-2-aminopropanoic Acid]", "IC50": "≥ 10000"}, {"smiles": "Cc1ccc(CNS(=O)(=O)c2ccccc2)cc1C[C@H](N)C(=O)O", "note": "[Compound 69, (S)-2-Amino-3-(2-methyl-5-(phenylsulfonamidomethyl)phenyl)propanoic Acid]", "IC50": "100 to 1000"}, {"smiles": "Cc1ccc(S(=O)(=O)N2CCC[C@@H]2C(=O)O)cc1C[C@H](N)C(=O)O", "note": "[Compound 45, ((3-((S)-2-Amino-2-carboxyethyl)-4-methylphenyl)sulfonyl)-D-proline]", "IC50": "≥ 10000"}, {"smiles": "N[C@@H](Cc1cccc(NS(=O)(=O)c2ccccc2)c1)C(=O)O", "note": "[Compound 37, (S)-2-Amino-3-(3-(phenylsulfonamido)phenyl)propanoic Acid]", "IC50": "100 to 1000"}, {"smiles": "CS(=O)(=O)Nc1ccccc1C[C@H](N)C(=O)O", "note": "[Compound 1, (S)-2-Amino-3-(2-(methylsulfonamido)phenyl)propanoic Acid]", "IC50": "≥ 10000"}, {"smiles": "Cc1ccc([S+]([O-])Cc2ccccc2)cc1C[C@H](N)C(=O)O", "note": "(stereo partly drawn) [Compound 64, (2S)-2-Amino-3-(5-(benzylsulfinyl)-2-methylphenyl)propanoic Acid]", "IC50": "1000 to 10000"}, {"smiles": "Cc1ccc(NS(C)(=O)=O)cc1C[C@H](N)C(=O)O", "note": "[Compound 67, (S)-2-Amino-3-(2-methyl-5-(methylsulfonamido)phenyl)propanoic Acid]", "IC50": "≥ 10000"}, {"smiles": "Cc1ccc(NS(=O)(=O)c2cc(Cl)cc(Cl)c2)cc1C[C@H](N)C(=O)O", "note": "[Compound 43, (S)-2-Amino-3-(5-((3,5-dichlorophenyl)sulfonamido)-2-methylphenyl)propanoic Acid]", "IC50": "100 to 1000"}, {"smiles": "CNS(=O)(=O)c1cccc(C[C@H](N)C(=O)O)c1", "note": "[Compound 72, (S)-2-Amino-3-(3-(N-methylsulfamoyl)phenyl)propanoic Acid]", "IC50": "≥ 10000"}, {"smiles": "Cc1ccc(S(=O)(=O)NCC(C)C)cc1C[C@H](N)C(=O)O", "note": "[Compound 46, (S)-2-Amino-3-(5-(N-isobutylsulfamoyl)-2-methylphenyl)propanoic Acid]", "IC50": "100 to 1000"}, {"smiles": "Cc1ccc(S(=O)(=O)Nc2ccccc2Br)cc1C[C@H](N)C(=O)O", "note": "[Compound 75, (S)-2-Amino-3-(5-(N-(2-bromophenyl)sulfamoyl)-2-methylphenyl)propanoic Acid]", "IC50": "100 to 1000"}, {"smiles": "Cc1ccc(NS(=O)(=O)c2cn(C)c(C)n2)cc1C[C@H](N)C(=O)O", "note": "[Compound 18, (S)-2-Amino-3-(5-((1,2-dimethyl-1H-imidazole)-4-sulfonamido)-2-methylphenyl)propanoic Acid]", "IC50": "≥ 10000"}, {"smiles": "Cc1ccc(NS(=O)(=O)c2csc3ccccc23)cc1C[C@H](N)C(=O)O", "note": "[Compound 27, (S)-2-Amino-3-(5-(benzo[b]thiophene-3-sulfonamido)-2-methylphenyl)propanoic Acid]", "IC50": "100 to 1000"}, {"smiles": "N[C@@H](Cc1cc(NS(=O)(=O)c2ccccc2)cc(NS(=O)(=O)c2ccccc2)c1)C(=O)O", "note": "[Compound 62, (S)-2-Amino-3-(3,5-bis(phenylsulfonamido)phenyl)propanoic Acid]", "IC50": "≥ 10000"}, {"smiles": "CCCCS(=O)(=O)Nc1ccc(C)c(C[C@H](N)C(=O)O)c1", "note": "[Compound 58, (S)-2-Amino-3-(5-(butylsulfonamido)-2-methylphenyl)propanoic Acid]", "IC50": "100 to 1000"}, {"smiles": "Cc1ccc(NS(=O)(=O)Cc2ccccc2)cc1C[C@H](N)C(=O)O", "note": "[Compound 23, (S)-2-Amino-3-(2-methyl-5-((phenylmethyl)sulfonamido)phenyl)propanoic Acid]", "IC50": "100 to 1000"}, {"smiles": "Cc1ccc(CSCc2ccccc2)cc1C[C@H](N)C(=O)O", "note": "[Compound 55, (S)-2-Amino-3-(5-((benzylthio)methyl)-2-methylphenyl)propanoic Acid]", "IC50": "100 to 1000"}, {"smiles": "CS(=O)(=O)Nc1cc(C[C@H](N)C(=O)O)cc(NS(C)(=O)=O)c1", "note": "[Compound 61, (S)-2-Amino-3-(3,5-di(methylsulfonamido)phenyl)propanoic Acid]", "IC50": "≥ 10000"}]}]}
